4 compounds from patent US7183099B2, “Inhibitors of autoinducer transporters” (Princeton University, priority 2001, dated 2007) can be followed below.

In assay [1] the test system is V. harveyi reporter strain BB886 (Sensor 1+, Sensor 2−). In words: V. harveyi BB886 luminescence stimulation bioassay. It is filed as cell-based, Vibrio harveyi. As to conditions: non self-stimulating sensor-1+, sensor-2− mutant (BB886). As to the method:
Assay for production of signaling compounds. Cell-free culture fluids from E. coli, S. typhimurium and V. harveyi strains were tested for the presence of signaling substances that could induce luminescence in the V. harveyi reporter strain BB170 or BB886. In the assays, 10 μl of cell-free culture fluids from E. coli ABI157, E. coli DH5, and S. typhimurium LT2 strains grown and harvested as described above were added to 96-well microtiter dishes. The V. harveyi reporter strain BB170 or BB886 was grown for 16 h at 30° C. with aeration in AB medium, diluted 1:5000 into fresh AB medium, and 90 µl of the diluted cells were added to the wells containing the E. coli and S. typhimurium cell-free culture fluids. Positive control wells contained 10 μl of cell-free culture fluid from strain V. harveyi BB152 (Autoinducer-1^−, Autoinducer-2^+) or V. harveyi BB120 (Autoinducer-1^+, Autoinducer-2^+). Negative control wells contained 10 μl of sterile growth medium. […] Every hour, light production was measured using a Wallac Model 1450 Microbeta Plus liquid scintillation counter in the chemiluminescence mode. The V. harveyi cell density was measured by diluting the same aliquots of cells used for measuring luminescence, spreading the dilutions onto solid LM medium (Bassler et al., 1993, supra), incubating the plates overnight at 30° C., and counting the resulting colonies the following day. […]

For assay [2], the system named is V. harveyi reporter strain BB170 (Sensor 1−, Sensor 2+). Type of assay: cell-based, Vibrio harveyi. As to conditions: candidates for the signal tested. How it is done:
Cell-free culture fluids from E. coli, S. typhimurium and V. harveyi strains were tested for the presence of signaling substances that could induce luminescence in the V. harveyi reporter strain BB170 or BB886. […] Positive control wells contained 10 μl of cell-free culture fluid from strain V. harveyi BB152 (Autoinducer-1^−, Autoinducer-2^+) or V. harveyi BB120 (Autoinducer-1^+, Autoinducer-2^+). Negative control wells contained 10 μl of sterile growth medium. The microtiter dishes were shaken in a rotary shaker at 175 rpm at 30° C.
The cell density was measured by diluting the same aliquots of cells used for measuring luminescence, spreading the dilutions onto solid LM medium, incubating the plates overnight at 30° C., and counting the resulting colonies the following day. […] Cell-free culture supernatants from V. harveyi or S. typhimurium strains were added to a final concentration of 10% (v/v) at the time of the first measurement. In control experiments, 10% (v/v) of AB medium, LB medium or LB medium containing 0.5% glucose was added instead of cell-free culture fluids.

Consider `C[C@@H](O)CC(=O)N[C@H]1CCOC1=O` [AI-1, N-(3-hydroxybutanoyl)-L-homoserine lactone, reference compound], for which the “lowest concentration to which the assay was sensitive” value in assay [1] amounted to 100 nM. Regarding `CC(=O)O` [acetate, reference compound], the “activity (induction of luminescence expression in V. harveyi)” value in assay [2] is reported as “None of these compounds has activity”. Regarding `N[C@H]1CCOC1=O` [homoserine lactone, reference compound], the “activity (induction of luminescence expression in V. harveyi)” value in assay [2] is on record as “None of these compounds has activity”. The same measure, in the same setting: the same measure for `O=C(O)CCC(=O)C(=O)O` [-ketoglutarate, reference compound]: “None of these compounds has activity”.
